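How tested: cells in 96-well plates exposed to compound for 48 hours at five concentrations. At the GI50, growth is halved.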 Activity calls are given as the source filed them. Rule as the data show it: active = GI50 up to about 1.1 µM and inactive = higher.
Assays:
Test in all cases: growth of human tumour cells (NCI), 48 h
[1] = system: MCF7
[2] = system: HCC 2998
[3] = system: COLO 205
[4] = system: SNB-75
[5] = system: SK-OV-3
[6] = system: HL-60
[7] = system: SF-268
[8] = system: SR
[9] = system: IGROV-1
[10] = system: Malme-3M
[11] = system: NCI-H522
[12] = system: ACHN
[13] = system: UACC-62
[14] = system: SNB-19
[15] = system: MOLT-4
[16] = system: HCT-15
[17] = system: U-251
[18] = system: SN12C
[19] = system: NCI-H23
[20] = system: LOX IMVI
[21] = system: OVCAR-4
[22] = system: DU-145
[23] = system: SK-MEL-2
[24] = system: M14
[25] = system: HT-29
[26] = system: PC-3
[27] = system: SW-620
[28] = system: RXF 393
[29] = system: CCRF-CEM
[30] = system: RPMI-8226
[31] = system: SF-295
[32] = system: SK-MEL-28
[33] = system: Hs-578T
[34] = system: HOP-92
[35] = system: T47D
[36] = system: NCI/ADR-RES
[37] = system: A498
[38] = system: NCI-H226
[39] = system: OVCAR-8
[40] = system: HOP-62
[41] = system: EKVX
[42] = system: MDA-MB-231
[43] = system: 786-0
[44] = system: OVCAR-5
[45] = system: SK-MEL-5
[46] = system: K562
[47] = system: NCI-H460
[48] = system: SF-539
[49] = system: MDA-MB-435
[50] = system: MDA-N
[51] = system: HCT-116
[52] = system: UACC-257
[53] = system: A549
[54] = system: OVCAR-3
[55] = system: KM12
[56] = system: CAKI-1
[57] = system: UO-31
[58] = system: TK-10
[59] = system: BT-549

Measured: GI50

N#C/C(=C/NC(=S)NCc1ccccc1)C(N)=O
> 100 µM: [16]
active: [54] 0.063 µM
inactive: [1] > 100 µM | [2] > 100 µM | [3] > 100 µM | [4] > 100 µM | [5] > 100 µM | [6] > 100 µM | [7] > 100 µM | [8] > 100 µM | [9] > 100 µM | [10] > 100 µM | [11] > 100 µM | [12] > 100 µM | [13] > 100 µM | [14] > 100 µM | [15] > 100 µM | [17] > 100 µM | [18] > 100 µM | [19] > 100 µM | [20] > 100 µM | [21] > 100 µM | [22] > 100 µM | [23] > 100 µM | [24] > 100 µM | [25] > 100 µM | [26] > 100 µM | [27] > 100 µM | [28] > 100 µM | [29] > 100 µM | [30] > 100 µM | [31] > 100 µM | [32] > 100 µM | [33] > 100 µM | [34] > 100 µM | [35] > 100 µM | [36] > 100 µM | [37] > 100 µM | [38] > 100 µM | [39] > 100 µM | [40] > 100 µM | [41] > 100 µM | [42] > 100 µM | [43] > 100 µM | [44] > 100 µM | [45] > 100 µM | [46] > 100 µM | [47] > 100 µM | [48] > 100 µM | [49] > 100 µM | [50] > 100 µM | [51] > 100 µM | [52] > 100 µM | [53] > 100 µM | [55] > 100 µM | [56] > 100 µM | [57] 50.1 µM

COc1ccc2cc(C(C)C(=O)N3C(=O)OCC3(C)C)ccc2c1 (centres undefined)
inactive: [1] > 100 µM | [2] > 100 µM | [3] > 100 µM | [4] 46.6 µM | [5] > 100 µM | [6] > 100 µM | [7] > 100 µM | [8] > 100 µM | [9] > 100 µM | [10] > 100 µM | [12] > 100 µM | [13] > 100 µM | [14] > 100 µM | [15] > 100 µM | [17] > 100 µM | [18] > 100 µM | [19] > 100 µM | [20] > 100 µM | [21] > 100 µM | [22] > 100 µM | [24] > 100 µM | [25] > 100 µM | [26] > 100 µM | [27] > 100 µM | [58] > 100 µM | [29] > 10 µM | [30] > 100 µM | [31] > 100 µM | [32] > 100 µM | [34] > 100 µM | [35] > 100 µM | [36] > 100 µM | [37] > 100 µM | [38] > 100 µM | [39] > 100 µM | [40] > 100 µM | [41] > 100 µM | [42] > 100 µM | [43] > 100 µM | [44] > 100 µM | [45] > 100 µM | [46] > 100 µM | [47] > 100 µM | [59] > 100 µM | [49] > 100 µM | [50] > 100 µM | [51] > 100 µM | [52] > 100 µM | [53] > 100 µM | [54] > 100 µM | [57] > 100 µM
> 100 µM: [16]

O=C1/C(=C/c2ccc([N+](=O)[O-])cc2)CCCc2ccccc21
69.2 µM: [16]
inactive: [1] > 100 µM | [2] > 100 µM | [3] > 100 µM | [4] 83.4 µM | [5] > 100 µM | [6] > 100 µM | [7] 30.4 µM | [8] > 100 µM | [9] > 100 µM | [10] > 100 µM | [11] > 100 µM | [12] > 100 µM | [13] 91 µM | [14] 32.1 µM | [15] > 100 µM | [17] > 100 µM | [18] > 100 µM | [19] > 100 µM | [20] > 100 µM | [21] > 100 µM | [22] > 100 µM | [23] > 100 µM | [24] > 100 µM | [25] > 100 µM | [26] > 100 µM | [27] > 100 µM | [58] > 100 µM | [29] > 100 µM | [30] > 100 µM | [31] 63.5 µM | [32] > 100 µM | [33] 25.8 µM | [34] > 100 µM | [36] > 100 µM | [38] > 100 µM | [39] > 100 µM | [40] 54.3 µM | [41] 48.6 µM | [42] > 100 µM | [43] > 100 µM | [44] > 100 µM | [46] > 100 µM | [47] > 100 µM | [48] 76.2 µM | [59] > 100 µM | [49] > 100 µM | [50] > 100 µM | [51] > 100 µM | [52] > 100 µM | [53] > 100 µM | [54] > 100 µM | [55] > 100 µM | [56] > 100 µM | [57] > 100 µM

— ChEMBL document CHEMBL1201862, “PubChem BioAssay data set” (2004)
